Tested on: skin, intrascapular area of the back
Experiment: 14-day cumulative irritation Patch Test, cleansers diluted to 25% w/w in distilled water, occlusive patch
Procedure: This was randomized, double-blind study. A sufficient number of subjects were recruited to ensure that 25 subjects completed the study. The 14-day cumulative irritation test was conducted as follows. Patching occurred for 14 consecutive days, except on Sundays. Patches applied on Saturday were left in place until Monday, when freshly prepared patches were applied. The designated patch test sites were approximately 2 cm×2 cm on the intrascapular area of the back. Approximately 0.2 mL of the test product was placed onto a Parke-Davis Readi-Bandage® occlusive patch that measured 2 cm×2 cm. Solutions were made by diluting the cleansers to 25% w/w in distilled water. The patch was then applied to the designated test site. The patches were secured with hypoallergenic tape (Scanpor {Allerderm} as needed). A 0.5% sodium dodecyl sulfate (SDS) solution was used as the control in the test.
Each day following application, the patches were removed, the sites evaluated and identical patches reapplied to the same test sites. All evaluations were made using the following 6-point scoring system: • 0=No evidence of any effect • +=Barely perceptible (minimal, faint, uniform or spotty erythema) numerically equivalent to 0.5 • 1=Mild (pink, uniform erythema covering most of the contact site) • 2=Moderate (pink-red, erythema uniform in the entire contact site) • 3=Marked (bright red erythema with/without petechiae or papules) • 4=Severe (deep red erythema with/without vesiculation or weeping)
If a dermal reaction of 3 or 4 occur with any of the test articles at any point during the study, further patch testing on that subject was terminated at the test site involved, and the attained score was assigned to that site for the subsequent scheduled test days.
Cumulative irritation scores, which were the sum of the numerical irritation grades assigned daily during the 14-day test period, were calculated at the end of the study to compare mildness of the test products. […] The data were statistically analyzed using Tukey-Kramer Comparison, and statistical significance was determined at the 95% confidence level.

## CCCCCCCCCCCCOS(=O)(=O)[O-].[Na+] [0.5% SDS Solution, sodium dodecyl sulfate]
Table 1, first patch test (Olay products)
  Total irritation score compared to 0.5% SDS solution: 100%
Table 1, first patch test (Olay products; 0.5% SDS control 783)
  Patch test Total irritation score: 783
Table 1, second patch test (Dove Deep Moisture)
  Total irritation score compared to 0.5% SDS solution: 100%
Table 1, second patch test (Dove Deep Moisture; 0.5% SDS control 912)
  Patch test Total irritation score: 912

Source: patent US8105994B2, “Personal wash cleanser comprising defined alkanoyl compounds, defined fatty acyl isethionate surfactant product and skin or hair benefit agent delivered in flocs upon dilution” (priority 2010, dated 2012)
